The values below come from patent publication US11999695B2, “YAP1 inhibitors that target the interaction of YAP1 with OCT4” (H. LEE MOFFITT CANCER CENTER AND RESEARCH INSTITUTE, INC., priority 2016, dated 2024).

YAP1:OCT4, sequence (P46937 whole entry): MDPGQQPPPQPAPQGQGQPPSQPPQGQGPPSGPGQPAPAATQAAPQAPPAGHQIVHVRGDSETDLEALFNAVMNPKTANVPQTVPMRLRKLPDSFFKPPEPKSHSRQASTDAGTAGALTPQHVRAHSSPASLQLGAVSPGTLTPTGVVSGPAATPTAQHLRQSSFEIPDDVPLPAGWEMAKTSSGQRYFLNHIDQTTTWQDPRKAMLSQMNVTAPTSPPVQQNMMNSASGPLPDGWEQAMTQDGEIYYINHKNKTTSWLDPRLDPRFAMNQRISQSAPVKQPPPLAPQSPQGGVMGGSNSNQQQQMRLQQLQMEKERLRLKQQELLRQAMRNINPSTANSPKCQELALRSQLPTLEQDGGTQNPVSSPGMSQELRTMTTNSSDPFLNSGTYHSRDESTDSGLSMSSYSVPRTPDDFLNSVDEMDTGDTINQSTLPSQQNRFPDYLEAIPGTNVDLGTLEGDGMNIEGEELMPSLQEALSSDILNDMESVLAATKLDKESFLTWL

The target in the experiment is YAP1:OCT4 (Homo sapiens, UniProt P46937). The experiment in a line: In vitro YAP1:OCT4 ELISA binding assay. To be noted: YAP1:OCT4 disruption. As to the method:
Activities of Compounds in the In Vitro YAP1:OCT4 ELISA Binding Assay
Selected compounds were assayed in a YAP1:OCT4 binding assay.
(In general: ELISA stands for enzyme-linked immunosorbent assay.)
The molecule `COC(=O)[C@H](Cc1ccc(OCc2ccccc2)cc1)NC(=O)CC1CCN(C(=O)OC(C)(C)C)CC1` [SR1-083, tert-Butyl (S)-4-(2-((3-(4-(benzyloxy)phenyl)-1-methoxy-1-oxopropan-2-yl)amino)-2-oxoethyl)piperidine-1-carboxylate] registered an IC50 of 1 to 10 µM.
The same measure for `COC(=O)[C@H](Cc1ccc(OCc2ccccc2)cc1)NC(=O)CN1CCN(C(=O)OC(C)(C)C)CC1` [SR1-090, tert-Butyl (S)-4-(2-((3-(4-(benzyloxy)phenyl)-1-methoxy-1-oxopropan-2-yl)amino)-2-oxoethyl)piperazine-1-carboxylate]: above 10 µM; for `COC(=O)[C@H](Cc1ccc(OCc2ccccc2)cc1)NC(=O)CN1CCN(C(=O)[C@@H]2CCCN2C(=O)OCC2c3ccccc3-c3ccccc32)CC1` [SR1-094, Fmoc-Pro-piperazineacetic acid Tyr(bzl)-OMe]: above 10 µM; for `COC(=O)[C@H](Cc1ccc(OCc2ccccc2)cc1)NC(=O)CC1CCN(Cc2ccccc2)CC1` [SR1-117, Methyl (S)-3-(4-(benzyloxy)phenyl)-2-(2-(1-benzylpiperidin-4-yl)acetamido)propanoate]: above 10 µM.
In turn, `COC(=O)[C@H](Cc1ccc(OCc2ccccc2)cc1)NC(=O)CC1CCN(C(=O)c2ccccc2)CC1` [SR1-118, Methyl (S)-2-(2-(1-benzoylpiperidin-4-yl)acetamido)-3-(4-(benzyloxy)phenyl)propanoate] gave an IC50 of 1 to 10 µM.
In the case of `COC(=O)[C@H](Cc1ccc(OCc2ccccc2)cc1)NC(=O)CC1CCN(C(=O)CCc2ccccc2)CC1` [SR1-119, Methyl (S)-3-(4-(benzyloxy)phenyl)-2-(2-(1-(3-phenylpropanoyl)piperidin-4-yl)acetamido)propanoate] it was 1 to 10 µM; in that of `COC(=O)[C@H](Cc1ccc(OCc2ccccc2)cc1)NC(=O)CC1CCN(C(=O)Cc2ccccc2)CC1` [SR1-122, Methyl (S)-3-(4-(benzyloxy)phenyl)-2-(2-(1-(2-phenylacetyl)piperidin-4-yl)acetamido)-propanoate], 1 to 10 µM.
`CC(C)(C)OC(=O)N1CCC(CC(=O)N[C@@H](Cc2ccc(OCc3ccccc3)cc2)C(=O)O)CC1` [SR1-152, (S)-3-(4-(benzyloxy)phenyl)-2-(2-(1-(tert-butoxycarbonyl)piperidin-4-yl)acetamido)-propanoic acid]: the IC50 lay within 1 to 10 µM.
The same measure for `CC(C)NC(=O)[C@H](Cc1ccc(OCc2ccccc2)cc1)NC(=O)CC1CCN(C(=O)OC(C)(C)C)CC1` [SR1-167, tert-butyl (S)-4-(2-((3-(4-(benzyloxy)phenyl)-1-(isopropylamino)-1-oxopropan-2-yl)amino)-2-oxoethyl)piperidine-1-carboxylate]: 1 to 10 µM; for `COC(=O)[C@H](Cc1ccc(OCc2ccccc2)cc1)NC(=O)CC1CCN(C(=O)CCc2ccc(Cl)cc2)CC1` [SR2-004, Methyl (S)-3-(4-(benzyloxy)phenyl)-2-(2-(1-(3-(4-chlorophenyl)propanoyl)piperidin-4-yl)acetamido)propanoate]: below 10 µM.
In turn, `COC(=O)[C@H](Cc1ccc(OCc2ccccc2)cc1)NC(=O)CC1CCN(C(=O)CCc2ccccc2OC)CC1` [SR2-006, Methyl (S)-3-(4-(benzyloxy)phenyl)-2-(2-(1-(3-(2-methoxyphenyl)propanoyl)piperidin-4-yl)acetamido)propanoate] yielded an IC50 of 1 to 10 µM.
For the molecule `CCOc1ccc(CCC(=O)N2CCC(CC(=O)N[C@@H](Cc3ccc(OCc4ccccc4)cc3)C(=O)OC)CC2)cc1` [SR2-007, Methyl (S)-3-(4-(benzyloxy)phenyl)-2-(2-(1-(3-(4-ethoxyphenyl)propanoyl)piperidin-4-yl)acetamido)propanoate], the IC50 was in the range of 1 to 10 µM.
The molecule `COC(=O)[C@H](Cc1ccc(OCc2ccccc2)cc1)NC(=O)CC1CCN(C(=O)CCc2ccc(F)cc2)CC1` [SR2-008, Methyl (S)-3-(4-(benzyloxy)phenyl)-2-(2-(1-(3-(4-fluorophenyl)propanoyl)piperidin-4-yl)acetamido)propanoate] came in with an IC50 of 1 to 10 µM.
In the case of `COC(=O)[C@H](Cc1ccc(OCc2ccccc2)cc1)NC(=O)CC1CCN(C(=O)CCc2ccc(C(F)(F)F)cc2)CC1` [SR2-009, Methyl (S)-3-(4-(benzyloxy)phenyl)-2-(2-(1-(3-(4-(trifluoromethyl)phenyl)propanoyl)-piperidin-4-yl)acetamido)propanoate] it was 1 to 10 µM; in that of `COC(=O)[C@H](Cc1ccc(OCc2ccccc2)cc1)NC(=O)CC1CCN(C(=O)CCc2cccc(F)c2)CC1` [SR2-010, Methyl (S)-3-(4-(benzyloxy)phenyl)-2-(2-(1-(3-(3-fluorophenyl)propanoyl)piperidin-4-yl)acetamido)propanoate], below 10 µM.
In the case of `O=C(CC1CCN(C(=O)CCc2ccccc2)CC1)N[C@@H](Cc1ccc(OCc2ccccc2)cc1)C(=O)NC1CC1` [SR2-015, (S)-3-(4-(Benzyloxy)phenyl)-N-cyclopropyl-2-(2-(1-(3-phenylpropanoyl)piperidin-4-yl)acetamido)propanamide] it was 1 to 10 µM.
For `O=C(CC1CCN(C(=O)CCc2ccccc2)CC1)N[C@@H](Cc1ccc(OCc2ccccc2)cc1)C(=O)NC1CCC1` [SR2-016, (S)-3-(4-(Benzyloxy)phenyl)-N-cyclobutyl-2-(2-(1-(3-phenylpropanoyl)piperidin-4-yl)acetamido)propanamide], the half-maximal inhibitory concentration (IC50) was in the range of 1 to 10 µM.
In the case of `O=C(CC1CCN(C(=O)CCc2ccccc2)CC1)N[C@@H](Cc1ccc(OCc2ccccc2)cc1)C(=O)NCC1CC1` [SR2-019, (S)-3-(4-(benzyloxy)phenyl)-N-(cyclopropylmethyl)-2-(2-(1-(3-phenylpropanoyl)piperidin-4-yl)acetamido)propanamide] it was 1 to 10 µM; in that of `COC(=O)[C@H](Cc1ccc(OCc2ccccc2)cc1)NC(=O)CC1CCN(C(=O)CC(c2ccccc2)c2ccccc2)CC1` [SR2-029, Methyl (S)-3-(4-(benzyloxy)phenyl)-2-(2-(1-(3,3-diphenylpropanoyl)piperidin-4-yl)acetamido)propanoate], below 10 µM; in that of `COC(=O)[C@H](Cc1ccc(OCc2ccccc2)cc1)NC(=O)CC1CCN(C(=O)CCc2cccc(Cl)c2)CC1` [SR2-032, Methyl (S)-3-(4-(benzyloxy)phenyl)-2-(2-(1-(3-(3-chlorophenyl)propanoyl)piperidin-4-yl)acetamido)propanoate], below 10 µM.
As for `COC(=O)[C@H](Cc1ccc(OCc2ccccc2)cc1)NC(=O)CC1CCN(C(=O)CCc2cccc(C)c2)CC1` [SR2-036, Methyl (S)-3-(4-(benzyloxy)phenyl)-2-(2-(1-(3-(m-tolyl)propanoyl)piperidin-4-yl)acetamido)propanoate], the IC50 is 1 to 10 µM.
Consider `COC(=O)[C@H](Cc1ccc(OCc2ccccc2)cc1)NC(=O)CC1CCN(C(=O)CCc2cc(Cl)cc(Cl)c2)CC1` [SR2-106, Methyl (S)-3-(4-(benzyloxy)phenyl)-2-(2-(1-(3-(3,5-dichlorophenyl)propanoyl)piperidin-4-yl)acetamido)propanoate], for which the IC50 is below 10 µM.
As for `COC(=O)[C@H](Cc1ccc(OCc2ccccc2)cc1)NC(=O)CC1CCN(C(=O)CCc2cccc(Br)c2)CC1` [SR2-107, Methyl (S)-3-(4-(benzyloxy)phenyl)-2-(2-(1-(3-(3-bromophenyl)propanoyl)piperidin-4-yl)acetamido)propanoate], the IC50 was below 10 µM.

As usually defined, the IC50 is the concentration that inhibits the measured activity by half. A lower IC50 goes with inhibition by little substance.
